Each structure is given as a SMILES string. Active and inactive are the calls of the source. Where only a bound is given, the exact number is not on record here.

From ChEMBL document CHEMBL1201862, “PubChem BioAssay data set” (2004) come the findings set out here.

Assay [1] has as its system P388/ADR. Put plainly: cells. In kind it is functional. The settings on record: Mus musculus.
The test system of assay [2] is SN12K1. Put plainly: cells. It counts as functional. The note with it: Homo sapiens.
The test system of assay [3] is P388. Put plainly: cells. It counts as functional. The note with it: Mus musculus.
The test system of assay [4] is CHO. Put plainly: CHO cell viability loss, potency – luminescence, cytotoxicity control for TLR9-MyD88 binding inhibitor project, dose response (AID 588339).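 Also: CHO cells stably coexpressing TLR9 and MyD88 fusions from primary screen; compound exposure lasted 48 hours before viability readout.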 In kind it is functional, cell-based, hamster. The settings on record: Cricetulus griseus.
The target in assay [5] is Beta Lactamase (Pseudomonas aeruginosa, UniProt Q932Y6). As to the kind of experiment: BLA reporter interference, concentration series – BLA reporter cells, FRET fluorescence, artefact control for TLR9-MyD88 binding inhibitor project, dose response (AID 588341).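 Also: cell based assay in CHO-K1 cells stably expressing beta-lactamase.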 In kind it is cell-based.
Beta Lactamase, sequence (Q932Y6 whole entry): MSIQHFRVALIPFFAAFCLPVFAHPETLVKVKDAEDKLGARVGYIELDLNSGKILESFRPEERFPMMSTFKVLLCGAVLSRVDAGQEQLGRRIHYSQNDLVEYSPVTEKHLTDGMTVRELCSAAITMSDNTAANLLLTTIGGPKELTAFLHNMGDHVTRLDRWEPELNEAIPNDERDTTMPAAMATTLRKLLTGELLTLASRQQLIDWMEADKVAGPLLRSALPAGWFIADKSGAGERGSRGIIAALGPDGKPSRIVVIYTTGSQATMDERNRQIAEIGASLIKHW
The target of assay [6] is Glucose-6-phosphate 1-dehydrogenase (Homo sapiens, UniProt P11413). Put plainly: inhibition of Homo sapiens G6PD, dose series – biochemical, fluorescence, selectivity assay for P. falciparum G6PD inhibitor project, dose response (AID 504792). It counts as functional.
Glucose-6-phosphate 1-dehydrogenase, sequence (P11413 whole entry): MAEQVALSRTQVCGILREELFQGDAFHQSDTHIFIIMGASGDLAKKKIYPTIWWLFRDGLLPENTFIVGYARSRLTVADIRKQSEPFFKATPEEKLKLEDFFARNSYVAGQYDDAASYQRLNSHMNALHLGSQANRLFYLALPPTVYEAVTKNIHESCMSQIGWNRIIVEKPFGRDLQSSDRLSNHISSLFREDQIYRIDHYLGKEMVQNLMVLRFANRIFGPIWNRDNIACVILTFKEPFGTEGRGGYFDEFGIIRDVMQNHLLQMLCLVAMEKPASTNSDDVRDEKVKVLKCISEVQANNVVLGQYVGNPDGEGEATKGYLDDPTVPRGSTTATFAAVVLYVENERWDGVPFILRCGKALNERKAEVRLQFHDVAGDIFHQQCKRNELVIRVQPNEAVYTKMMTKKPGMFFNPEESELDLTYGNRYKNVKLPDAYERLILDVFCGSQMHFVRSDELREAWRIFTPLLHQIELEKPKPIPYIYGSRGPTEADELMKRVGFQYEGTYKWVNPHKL
For assay [7], the target named is Heat shock protein HSP 90-alpha (Homo sapiens, UniProt P07900). It counts as functional, organism-based.
Assay [8] deals with BJ. Put plainly: BJ-TERT-LT-ST fibroblast viability loss – cell-based, RAS-independent, luminescence, dose response (AID 1935).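 Also: BJ fibroblasts immortalized with TERT plus LT and ST oncogenes.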 It counts as functional. The settings on record: Homo sapiens.
The nature of assay [9]: non-specific 3'UTR reporter inhibition in Clone20-Shn3RL – cell-based, Renilla luciferase, cherry-picked, counter-screen for Shn3 inhibitor project, dose response (AID 624133). It counts as functional. A general note: A counterscreen serves to expose hits that act by an unwanted route or on another target.
Assay [10] can be described thus: DRD fibroblast viability loss – cell-based, non-viral oncogenic, luminescence, dose response (AID 1934). The note with it: Homo sapiens. In kind it is functional.
Assay [11] deals with INS1. Put plainly: INS-1E survival protection against cytokine death – cell-based, luminescence, retest, dose response (AID 449756).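 Also: cell death triggered by IL-1 beta plus TNF-alpha plus IFN-gamma mixture; protective hits raise ATP signal compared with cytokine alone wells.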 In kind it is functional. The settings on record: Rattus norvegicus.
The subject of assay [12] is BJ. As to the kind of experiment: BJ-TERT fibroblast viability loss – cell-based, RAS-independent, luminescence, dose response (AID 1933). It counts as functional. The note with it: Homo sapiens.
A short description of assay [13]: loss of viability in HepG2 cells – cell-based, CellTiter-Glo, cherry-picked, cytotoxicity control for Shn3 inhibitor project, dose response (AID 624134). In kind it is functional. On the technique in general: In ATP-based viability assays light output follows the ATP content of the culture.
The test system of assay [14] is BJ. Put plainly: cells. In kind it is functional, cell-based. The settings on record: Homo sapiens.
The subject of assay [15] is BJ. As to the kind of experiment: growth inhibition of engineered Ras-driven BJ cells – cell-based, alamar blue fluorescence, cherrypicked samples, dose response (AID 2631).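 Also: confirmatory dose-response assay in RAS-dependent BJ fibroblasts engineered with TERT, LT and ST, with cytotoxicity read by fluorescence.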 It counts as functional. The note with it: Homo sapiens.
A short description of assay [16]: reduction of Shn3 3'UTR-driven luciferase in osteoblasts – cell-based, Clone20 osteoblasts, firefly luciferase, cherry-picked, dose response (AID 624132).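 Also: firefly luciferase luminescence from reporter carrying the Shn3 3'UTR in osteoblasts.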 In kind it is functional.
The target in assay [17] is T1, Sentrin-specific protease 8 (Homo sapiens, UniProt Q96LD8).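 Also: luminescence read-out of SENP8 inhibition, dose-response confirmation following an ultra-high-throughput screen.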
T1 sequence (Q96LD8 whole entry): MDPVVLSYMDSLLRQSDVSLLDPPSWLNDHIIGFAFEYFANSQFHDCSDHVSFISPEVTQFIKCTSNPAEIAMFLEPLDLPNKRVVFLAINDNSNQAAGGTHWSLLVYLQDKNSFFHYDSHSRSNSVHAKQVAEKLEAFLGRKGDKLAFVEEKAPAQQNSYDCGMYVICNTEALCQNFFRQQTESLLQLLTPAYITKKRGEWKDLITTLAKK
It counts as functional.

Assay [18] deals with T2, Sentrin-specific protease 7 (Homo sapiens, UniProt Q9BQF6).
T2 sequence (Q9BQF6 whole entry): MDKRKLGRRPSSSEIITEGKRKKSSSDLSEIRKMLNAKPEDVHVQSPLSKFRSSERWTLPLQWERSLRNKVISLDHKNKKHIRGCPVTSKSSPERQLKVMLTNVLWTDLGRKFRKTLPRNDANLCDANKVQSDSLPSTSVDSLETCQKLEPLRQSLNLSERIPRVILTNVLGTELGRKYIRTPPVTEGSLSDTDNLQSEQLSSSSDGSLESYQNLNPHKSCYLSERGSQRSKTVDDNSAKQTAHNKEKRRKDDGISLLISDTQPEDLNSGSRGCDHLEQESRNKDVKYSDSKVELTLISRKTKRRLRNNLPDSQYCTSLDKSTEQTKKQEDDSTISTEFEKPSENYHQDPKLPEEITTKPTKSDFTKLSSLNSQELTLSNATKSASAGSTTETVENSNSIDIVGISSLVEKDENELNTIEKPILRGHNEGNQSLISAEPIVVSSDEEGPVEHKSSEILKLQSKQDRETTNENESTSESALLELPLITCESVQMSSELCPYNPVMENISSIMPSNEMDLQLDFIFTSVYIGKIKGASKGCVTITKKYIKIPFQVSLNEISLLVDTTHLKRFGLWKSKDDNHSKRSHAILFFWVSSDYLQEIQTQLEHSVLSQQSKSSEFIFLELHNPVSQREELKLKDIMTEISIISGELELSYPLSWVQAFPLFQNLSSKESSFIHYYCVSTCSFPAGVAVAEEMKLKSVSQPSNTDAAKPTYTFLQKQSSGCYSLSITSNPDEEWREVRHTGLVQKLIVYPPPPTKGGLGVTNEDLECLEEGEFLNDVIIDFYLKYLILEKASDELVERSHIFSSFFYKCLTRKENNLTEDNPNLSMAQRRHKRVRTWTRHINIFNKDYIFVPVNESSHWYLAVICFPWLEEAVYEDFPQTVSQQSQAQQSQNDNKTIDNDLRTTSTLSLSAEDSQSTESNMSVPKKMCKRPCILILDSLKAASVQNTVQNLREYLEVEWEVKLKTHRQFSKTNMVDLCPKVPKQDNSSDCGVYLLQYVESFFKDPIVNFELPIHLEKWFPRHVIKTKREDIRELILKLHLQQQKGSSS
In kind it is functional.

Assay [19] has as its target T3, Caspase-3 (Homo sapiens, UniProt P42574).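 Also: Dose-response selectivity test against caspase-3 for candidate inhibitors of sentrin-specific proteases (SENPs).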
T3 sequence (P42574 whole entry): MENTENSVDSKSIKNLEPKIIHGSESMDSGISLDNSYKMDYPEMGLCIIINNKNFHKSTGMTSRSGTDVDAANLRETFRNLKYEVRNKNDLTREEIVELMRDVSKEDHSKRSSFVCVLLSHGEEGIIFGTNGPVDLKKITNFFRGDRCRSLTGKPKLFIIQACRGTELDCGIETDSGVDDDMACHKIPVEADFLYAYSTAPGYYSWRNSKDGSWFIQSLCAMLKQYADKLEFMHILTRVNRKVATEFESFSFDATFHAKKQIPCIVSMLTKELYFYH
In kind it is functional.

The target of assay [20] is T4, Sentrin-specific protease 6 (Homo sapiens, UniProt Q9GZR1).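 Also: Luminescence-based dose-response confirmatory assay of SENP6 inhibition, following up an ultra-high-throughput screen.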
T4 sequence (Q9GZR1 whole entry): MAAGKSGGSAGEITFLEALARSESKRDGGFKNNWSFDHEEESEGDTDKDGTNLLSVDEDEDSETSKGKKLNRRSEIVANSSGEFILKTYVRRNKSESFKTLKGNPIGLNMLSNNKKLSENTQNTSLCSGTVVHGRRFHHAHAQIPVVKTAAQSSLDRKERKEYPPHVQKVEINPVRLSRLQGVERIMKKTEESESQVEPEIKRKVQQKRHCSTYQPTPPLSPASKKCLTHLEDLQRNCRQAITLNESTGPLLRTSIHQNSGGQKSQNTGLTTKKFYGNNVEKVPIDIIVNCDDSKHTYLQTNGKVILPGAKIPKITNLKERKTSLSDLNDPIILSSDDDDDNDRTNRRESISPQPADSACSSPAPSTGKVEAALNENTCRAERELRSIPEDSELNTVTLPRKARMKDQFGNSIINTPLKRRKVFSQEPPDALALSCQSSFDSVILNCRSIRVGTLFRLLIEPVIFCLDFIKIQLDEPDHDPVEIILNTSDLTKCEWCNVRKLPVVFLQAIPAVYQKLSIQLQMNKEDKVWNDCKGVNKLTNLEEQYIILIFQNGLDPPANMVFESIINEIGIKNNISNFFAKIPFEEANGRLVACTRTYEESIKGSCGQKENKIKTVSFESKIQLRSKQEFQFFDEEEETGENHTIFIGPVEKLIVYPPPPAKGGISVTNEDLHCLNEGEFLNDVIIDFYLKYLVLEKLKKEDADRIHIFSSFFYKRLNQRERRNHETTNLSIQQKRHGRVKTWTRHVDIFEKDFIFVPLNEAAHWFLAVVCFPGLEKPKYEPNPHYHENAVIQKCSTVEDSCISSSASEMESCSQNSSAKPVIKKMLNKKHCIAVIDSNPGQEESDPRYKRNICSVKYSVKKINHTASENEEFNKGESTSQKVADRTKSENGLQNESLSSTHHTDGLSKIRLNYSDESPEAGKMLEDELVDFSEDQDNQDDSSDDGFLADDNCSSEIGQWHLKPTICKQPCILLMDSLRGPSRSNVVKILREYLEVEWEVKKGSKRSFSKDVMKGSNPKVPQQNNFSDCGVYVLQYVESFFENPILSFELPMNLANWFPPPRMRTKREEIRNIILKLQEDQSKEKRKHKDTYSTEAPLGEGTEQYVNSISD
It counts as functional.

Assay [21] concerns the target T5, Protein skinhead-1 (Caenorhabditis elegans, UniProt P34707).
T5 sequence (P34707 whole entry): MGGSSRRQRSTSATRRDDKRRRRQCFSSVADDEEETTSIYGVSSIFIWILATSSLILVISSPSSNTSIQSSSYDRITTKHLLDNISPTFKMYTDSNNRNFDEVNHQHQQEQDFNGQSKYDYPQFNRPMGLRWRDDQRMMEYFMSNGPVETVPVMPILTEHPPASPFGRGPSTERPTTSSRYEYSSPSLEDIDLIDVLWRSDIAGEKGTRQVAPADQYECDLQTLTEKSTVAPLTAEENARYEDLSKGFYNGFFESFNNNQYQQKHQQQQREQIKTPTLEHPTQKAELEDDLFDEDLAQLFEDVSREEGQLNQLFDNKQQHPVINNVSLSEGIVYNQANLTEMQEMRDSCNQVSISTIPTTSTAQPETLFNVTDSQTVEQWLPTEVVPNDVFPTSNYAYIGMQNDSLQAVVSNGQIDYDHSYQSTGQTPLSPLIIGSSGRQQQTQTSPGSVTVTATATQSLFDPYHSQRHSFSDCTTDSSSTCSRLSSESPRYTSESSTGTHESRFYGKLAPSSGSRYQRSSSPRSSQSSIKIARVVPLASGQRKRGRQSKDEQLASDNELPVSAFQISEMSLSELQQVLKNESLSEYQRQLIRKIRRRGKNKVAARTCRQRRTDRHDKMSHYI
It counts as functional.

Usually GI50 stands for the concentration that inhibits growth by half. Take `N/C(=N\O)N/N=C/c1ncccc1O`: the results for the GI50 in [1], in assay [2] and in assay [3] were 1.52 µM (inactive), 3.52 µM (inactive) and 1.67 µM (inactive), respectively.
For `CCOC(=O)CCc1c(C)c2c(O)cc(O)cc2oc1=O` the same measures were 14 µM (inactive), > 94.2 µM (inactive) and 3.77 µM (inactive).
In the case of `O=C(NN1C(=O)CSC1c1ccc(C(F)(F)F)cc1)c1ccncc1` (configuration not stated), the results for the GI50 in assay [1], in assay [2] and in [3] were > 67.6 µM (inactive), > 100 µM (inactive) and > 100 µM (inactive), respectively.
As usually defined, the IC50 is the concentration at which inhibition is half-maximal. For orientation: AC50 means the midpoint of the concentration-response curve, whichever way the signal moves. For the compound `CC(=O)Nc1ccc2c(c1)Cc1cc(N3C(=O)C=CC3=O)ccc1-2`, the concentration for half-maximal inhibition (IC50) is 1.86 µM (active) in assay [4], 7.23 µM (active) in assay [5] and > 80 µM (inactive) in assay [6]. Also, the AC50 in assay [7] is 0.68 µM (active).
As a reminder, the EC50 is the concentration giving half of the maximal effect. With `Cc1cccc(NC(=O)/C=C/c2ccc([N+](=O)[O-])s2)c1`, the EC50 in [8] is 4.67 µM (inconclusive); in [10], 4.68 µM (active); in assay [12], 4.95 µM (inconclusive); in assay [14], 15.7 µM (active); in assay [15] it was 0.531 µM (active). Further, the AC50 in assay [9] is 13.5 µM (active); in assay [11], 7.91 µM (active); in [13], 9.74 µM (active); in [16], 3.29 µM (active).
With `N/C(S)=N/N=C/c1ncccc1O`, the GI50 in assay [1] is 0.366 µM (active); in assay [2], 0.382 µM (active); in assay [3], 0.347 µM (active).
`Nc1c(S(=O)(=O)O)cc(S(=O)(=O)O)c2ccc(/N=N/c3ccc(/C=C/c4ccc(/N=N/c5ccc6c(S(=O)(=O)O)cc(S(=O)(=O)O)c(N)c6c5O)cc4S(=O)(=O)O)c(S(=O)(=O)O)c3)c(O)c12`: the GI50 in assay [2] is > 100 µM (inactive); in [3], 73.5 µM (inactive).
For the compound `CCCOC(=O)c1ccc(NC(=O)/C=C/c2cccs2)cc1`, the half-inhibitory concentration (IC50) in assay [17] was 70.2 µM (active); in assay [18] it was 12.9 µM (active); in assay [19], 62.9 µM (active); in [20], 69.7 µM (active); in [21] it was > 100 µM (inactive).
